Data as given in publication PMC6835953, “Formulation Composition and Process Affect Counterion for CSP7 Peptide” (Pharmaceutics, 2019).
Like-named read-outs stand apart in the source and are kept apart here. Where no end group is shown, it is not given here.

How the values were obtained:
[1] = Thermogravimetric analysis overlaid with DSC; settings: after boiling at ~190 °C (melting at ~130 °C)
Method: Thermogravimetric Analysis (TGA) was performed for ammonium acetate and ammonium TFA using a TA Thermogravimetric Analyzer Q500 (TA, Instruments, New Castle, DE, USA). Standard aluminum pans were filled with about 5–7 mg of powder. Temperature ramp experiments were performed from 30 °C to 300 °C at a rate of 5 °C·min^−1 with a nitrogen purge at 50 mL·min^−1.
Differential scanning calorimetry (DSC) analysis was performed using a TA Instruments 175 Model Auto Q20 DSC. Samples of 5–7 mg were weighed and placed into standard aluminum pans. The scans were performed at a ramp rate of 5 °C·min^−1 in the range of 30–300 °C. During the analyses, high-purity nitrogen flowed through the sample chamber at a rate of 50 mL·min^−1.

[2] = cited from earlier work
[3] = Water sorption-desorption isotherm (dynamic vapor sorption); type: physicochemical; settings: bulk powder, 25 °C, sorption-desorption cycle
Method: Water sorption isotherms at 25 °C were determined for lyophilized formulations using a dynamic vapor sorption (DVS-1) microbalance (Surface Measurement Systems, London, UK). A quartz pan was filled with about 8–10 mg of powder. Samples were dried with nitrogen gas until a baseline was established less than 0.002% change in dm/dt for 120 min. Each formulation was run through a full sorption-desorption cycle from 0% to 90% RH in steps of 10% RH at 25 °C. Humidity was increased/decreased by 10% after equilibrium was reached, as determined by a dm/dt less than 0.0075% within an interval of 5 min. Sorption-desorption isotherms were calculated and plotted based on their percent change in mass compared to the initial dry formulation weight (Equation (2)):(2) % Mass sorption/desorption =(Increase or decrease in mass from water sorption/desorption/mass of dry powder at initial equilibration (0% RH))× 100

[4] = physchem; type: physicochemical
Method: The samples were shaken on a vortex mixer for 5 min and on an orbital shaker at 100 rpm for 3 h. The samples were collected and centrifuged at 12,000 rpm for 15 min. The supernatants of the samples were collected and analyzed using HPLC as described in Section 2.6 below.
(§1) CSP7 was chemically analyzed with a Thermo Scientific™ Dionex™ UltiMate™ 3000 HPLC System (Thermo Scientific, Sunnyvale, CA, USA) with a wavelength of 220 nm. The two mobile phases were designated Phase A (0.1% trifluoroacetic acid in water) and Phase B (0.09% trifluoroacetic acid in a mixture of 20:80 water and acetonitrile). The HPLC gradient that operated at 1.0 mL·min^−1 ran from 25% to 35% for mobile Phase B for 20 min then equilibrated at 25% for 5 min. An Ultimate 3000 Autosampler was utilized to inject 20 μL samples. Injections were passed through a Phenomenex® Luna 5 μm C18(2) 100 Å, 150 mm × 4.6 mm (Phenomenex, Torrance, CA, USA), maintained at ambient temperature. The retention time of CSP7 was approximately 8.3 min. The standard curve of the CSP7 (concentrations of 0.015625–1.00 mg·mL^−1) were prepared. All analyses maintained linearity in the range tested. Chromeleon Version 6.80 software (Thermo Scientific) was used to process all chromatography data.

[5] = type: physicochemical; settings: DPBS; for Recovery of CSP7 in the aggregates / Recovery of CSP7 in the supernatant: 12 h shaking
Method: (§2) The peptide solution was prepared in DPBS and TBS at 0.5 mg·ml^−1 of free peptide. The ammonium hydroxide was added to the solution to dissolve the peptide until a clear solution was obtained.
The peptide solutions were shaken on a VWR standard orbital shaker model 1000 (Radnor, PA, USA) at 200 rpm at 5 °C and 25 °C. The samples were collected at 0.5, 1, 3, 6, and 12 h, and they were analyzed using HPLC as described in Section 2.6 below. The CSP7 aggregates were also collected and analyzed using ^1H-NMR as described in Section 2.14 below.
as §1

[6] = Solution storage stability (HPLC recovery); type: physicochemical
Method: as §2
The peptide solutions were stored at −80 °C, −20 °C, 2−8 °C, and at room temperature (25 °C). The samples were collected after 24 h and 48 h and analyzed using HPLC as described in Section 2.6 below.
as §1

[7] = type: physicochemical
Method: as §2
Freeze-thaw cycles were studied at −20 °C and −80 °C. The peptide solutions were frozen at each temperature for 1 h and then thawed at room temperature (25 °C) for 1 h. The freeze-thaw cycle was repeated for 5 cycles. The samples were collected at the end of each cycle and analyzed using HPLC as described in Section 2.6 below.
as §1

[8] = Molar ratio of counterions to CSP7 by solution 1H/19F NMR; type: physicochemical; settings: bulk powder, initial vs after exposure to 90% RH, Equation (6)
Method: We acquired ^1H-NMR spectra using a Varian® NMR 600 MHz Spectrometer (Agilent Inc., Palo Alto, CA, USA) at 25 °C. The lyophilized samples were reconstituted in deuterium oxide at 1.0 mg·mL^−1. We added 5 μL of 1 N NaOH/D2O was added to the sample to dissolve the peptides. Solutions were then transferred to 5 mm NMR tubes for NMR data acquisition. Chemical shifts were referenced to a residual solvent, H2O, at 4.61 ppm. At this time, the ^1H-NMR spectra were acquired using an Agilent Direct Drive 600 spectrometer, operating at a proton frequency of 599.75 MHz (14.1 T) at 298 K, equipped with an AutoX DB probe. All ^1H-NMR spectra were recorded in D2O after 128 cycles for each sample. The molar ratio of counterion to peptide was calculated according to the peak area of the methyl group of CSP7 (0.85, 0.93, and 1.03 ppm; 18 H atoms in total) and the methyl group of the acetate counterion (1.75 ppm; 3 H atoms). […]
We acquired ^19F-NMR spectra using a Varian® NMR 600 MHz Spectrometer (Agilent Inc., Palo Alto, CA, USA) at 25 °C. […] All ^19F NMR spectra were recorded in D2O after 512 cycles for each sample. The molar ratio of counterion to peptide was calculated according to the peak area of fluorine atoms of the trifluoroacetate counterion (−75.5 ppm, 3 F atoms) and the […] (−107.7, −110.9, and −133.5 ppm; 1F atom each). […]

With `N.O=C(O)C(F)(F)F` [ammonium TFA] the “Mass remaining in TGA” value [1] was 0%.

In the case of `CC(=O)O.N` [ammonium acetate], the Vapor pressure ([2]; at 25 °C) is given as 13.9 mm Hg and the Boiling point [2] is given as 138.5 °C.

For FTTFTVT [CSP7 TFA], the “Decrease in weight in moisture desorption isotherm compared to initial weight” value [3] was “no change in weight”, the Solubility ([4]; 3 h, pH 10) was 4134 ± 320 µg/mL and the solubility at 3 h ([4]; pH 8, Solubility) was 1220 ± 24 µg/mL.

For FTTFTVT [CSP7 acetate], the “Recovery of CSP7 in the aggregates” value ([5]; 5 °C) was 31.7 ± 2.3%, the “Recovery of CSP7 in the supernatant” value ([5]; 5 °C) was 67.8 ± 5.8% and the “Recovery of CSP7 in the aggregates” value ([5]; 25 °C) was 38.3 ± 2.8%. The “Recovery of CSP7 in the supernatant” value ([5]; 25 °C) was 59.7 ± 1.5%, the “Shaking time after which peptide aggregation was found” value ([5]; orbital shaker, 5 °C and 25 °C) was 6 h and the “Recovery in bulk solution after storage” value ([6]; DPBS, 24 h, 5 °C) was 99.9 ± 0.1%. The “Recovery in bulk solution after storage” value ([6]; DPBS, 24 h, 25 °C) was 100.1 ± 0.1%, the “Recovery in bulk solution after storage” value ([6]; DPBS, 24 h, −20 °C) was 100.2 ± 0.8% and the “Recovery in bulk solution after storage” value ([6]; DPBS, 24 h, −80 °C) was 100.0 ± 0.1%. For the same molecule, the “Recovery in bulk solution after storage” value ([6]; DPBS, 48 h, 5 °C) was 99.9 ± 0.1%, the “Recovery in bulk solution after storage” value ([6]; DPBS, 48 h, 25 °C) was 99.9 ± 0.3% and the “Recovery in bulk solution after storage” value ([6]; DPBS, 48 h, −20 °C) was 100.3 ± 0.7%. For the same molecule, the “Recovery in bulk solution after storage” value ([6]; DPBS, 48 h, −80 °C) was 100.0 ± 0.1%, the “Recovery in bulk solution after storage” value ([6]; TBS, 24 h, 5 °C) was 100.1 ± 0.2% and the “Recovery in bulk solution after storage” value ([6]; TBS, 24 h, 25 °C) was 100.2 ± 0.3%. For the same molecule, the “Recovery in bulk solution after storage” value ([6]; TBS, 24 h, −20 °C) was 100.2 ± 0.2%, the “Recovery in bulk solution after storage” value ([6]; TBS, 24 h, −80 °C) was 100.1 ± 0.2% and the “Recovery in bulk solution after storage” value ([6]; TBS, 48 h, 5 °C) was 100.1 ± 0.1%. For the same molecule, the “Recovery in bulk solution after storage” value ([6]; TBS, 48 h, 25 °C) was 100.3 ± 0.1%, the “Recovery in bulk solution after storage” value ([6]; TBS, 48 h, −20 °C) was 100.5 ± 0.2% and the “Recovery in bulk solution after storage” value ([6]; TBS, 48 h, −80 °C) was 100.5 ± 0.4%. The “Recovery of CSP7 in DPBS and TBS” value ([6]; after 48 h storage at −80 °C, −20 °C, 5 °C and 25 °C) was “about 100%”, the “CSP7 remaining in DPBS and TBS” value [7] was “about 100%” and the “Recovery in bulk solution after freeze-thaw” value (“Recovery … after freeze-thaw” for short) ([7]; DPBS, −20 °C, cycle 1) was 100.3 ± 0.2%. The “Recovery … after freeze-thaw” value ([7]; DPBS, −20 °C, cycle 2) was 100.7 ± 0.1%, the “Recovery … after freeze-thaw” value ([7]; DPBS, −20 °C, cycle 3) was 100.7 ± 0.1% and the “Recovery … after freeze-thaw” value ([7]; DPBS, −20 °C, cycle 4) was 101.0 ± 0.2%. For the same molecule, the “Recovery … after freeze-thaw” value ([7]; DPBS, −20 °C, cycle 5) was 101.3 ± 0.2%, the “Recovery … after freeze-thaw” value ([7]; DPBS, −80 °C, cycle 1) was 99.8 ± 0.2% and the “Recovery … after freeze-thaw” value ([7]; DPBS, −80 °C, cycle 2) was 100.1 ± 0.1%. The “Recovery … after freeze-thaw” value ([7]; DPBS, −80 °C, cycle 3) was 100.2 ± 0.2%, the “Recovery … after freeze-thaw” value ([7]; DPBS, −80 °C, cycle 4) was 100.4 ± 0.1% and the “Recovery … after freeze-thaw” value ([7]; DPBS, −80 °C, cycle 5) was 100.9 ± 0.1%. For the same molecule, the “Recovery … after freeze-thaw” value ([7]; TBS, −20 °C, cycle 1) was 99.4 ± 0.3%, the “Recovery … after freeze-thaw” value ([7]; TBS, −20 °C, cycle 2) was 99.6 ± 0.1% and the “Recovery … after freeze-thaw” value ([7]; TBS, −20 °C, cycle 3) was 99.7 ± 0.2%. For the same molecule, the “Recovery … after freeze-thaw” value ([7]; TBS, −20 °C, cycle 4) was 99.8 ± 0.2%, the “Recovery … after freeze-thaw” value ([7]; TBS, −20 °C, cycle 5) was 100.2 ± 0.1% and the “Recovery … after freeze-thaw” value ([7]; TBS, −80 °C, cycle 1) was 99.9 ± 0.3%. The “Recovery … after freeze-thaw” value ([7]; TBS, −80 °C, cycle 2) was 100.3 ± 0.2%, the “Recovery … after freeze-thaw” value ([7]; TBS, −80 °C, cycle 3) was 100.4 ± 0.2% and the “Recovery … after freeze-thaw” value ([7]; TBS, −80 °C, cycle 4) was 100.7 ± 0.2%. For the same molecule, the “Recovery … after freeze-thaw” value ([7]; TBS, −80 °C, cycle 5) was 100.6 ± 0.4%, the “Decrease in weight in moisture desorption isotherm compared to initial weight” value [3] was 6.36% and the solubility at 3 h ([4]; pH 2, Solubility) was 701 ± 153 µg/mL. For the same molecule, the solubility at 3 h ([4]; pH 3.5, Solubility) was 241 ± 7 µg/mL, the solubility at 3 h ([4]; pH 4.5, Solubility) was 160 ± 3 µg/mL and the solubility at 3 h ([4]; pH 5.5, Solubility) was 174 ± 16 µg/mL. It also gave a solubility at 3 h ([4]; pH 6.5, Solubility) of 178 ± 13 µg/mL, a solubility at 3 h ([4]; pH 7.5, Solubility) of 347 ± 14 µg/mL and a solubility at 3 h ([4]; pH 10, Solubility) of 2880 ± 201 µg/mL. For the same molecule, the “Percentage of mass loss calculated from NMR molar ratios of acetate to CSP7” value [8] was 6.37%.
